Laboratory results published in patent publication US20060069132A1, “Azolecarboxamide herbicides” (priority 2004, published 2006).

Key:
[1] = test system: giant foxtail; assay: Test B pre-/postemergence herbicide test; type: in vivo, Setaria faberi
How it was run: (§1)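 Plants compared with untreated controls 13–15 days post-treatment and given a visual 0–100 injury score. Applications: preemergence to seeds; postemergence at 1- to 4-leaf (2–18 cm); paddy species flooded, 2-leaf stage. Vehicle non-phytotoxic, surfactant included.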

[2] = test system: corn; assay: Test B pre-/postemergence herbicide test; type: in vivo, Zea mays
How it was run: as §1

[3] = test system: large crabgrass; assay: Test B pre-/postemergence herbicide test; type: in vivo, Digitaria sanguinalis
How it was run: as §1

[4] = test system: Surinam grass; assay: Test B pre-/postemergence herbicide test; type: in vivo, Urochloa decumbens
How it was run: as §1

[5] = test system: cocklebur; assay: Test B pre-/postemergence herbicide test; type: in vivo, Xanthium strumarium
How it was run: (§2)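 Response was scored visually 13 to 15 days after treatment against untreated greenhouse controls, 0 meaning no effect and 100 complete control. Formulations (solvent mixture plus surfactant) went onto soil after planting, onto foliage of 1- to 4-leaf plants, and onto 2-leaf plants in a flooded paddy set including rice and barnyardgrass.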

[6] = test system: blackgrass; assay: Test B postemergence herbicide test; type: in vivo, Alopecurus myosuroides
How it was run: (§3)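 Visual control ratings, 0–100 versus untreated controls, taken after 13 to 15 days in the greenhouse. Blackgrass received a postemergence spray at the 1- to 4-leaf stage (2–18 cm); ducksalad, umbrella sedge and barnyardgrass were flooded-paddy treated at 2 leaves.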

[7] = test system: barnyardgrass; assay: Test B pre-/postemergence herbicide test; type: in vivo, Echinochloa crus-galli
How it was run: as §2

[8] = test system: pigweed; assay: Test B pre-/postemergence herbicide test; type: in vivo, Amaranthus retroflexus
How it was run: as §1

[9] = test system: wheat; assay: Test B postemergence herbicide test; type: in vivo, Triticum aestivum; set-up: key to Wheat plant response rating: 0 = no effect, 100 = complete control; conditions: for Wheat plant response rating: postemergence
How it was run: (§4)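 After treating 2-leaf paddy plants or 2–18 cm postemergence plants (1 to 4 leaves) with formulated chemical, researchers kept them in a greenhouse for 13–15 days. Effects were judged visually versus controls: 0 indicates none, 100 total control.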

[10] = test system: wild oat; assay: Test B postemergence herbicide test; type: in vivo, Avena fatua
How it was run: as §4

[11] = test system: morningglory; assay: Test B pre-/postemergence herbicide test; type: in vivo, Ipomoea coccinea
How it was run: as §2

[12] = test system: velvetleaf; assay: Test B pre-/postemergence herbicide test; type: in vivo, Abutilon theophrasti
How it was run: as §1

[13] = test system: rice; assay: Test B flooded paddy test; type: in vivo, Oryza sativa; conditions: 1000 g ai/ha, scale 0 to 100 (0 no effect, 100 complete control)
How it was run: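 Formulated test chemicals went onto postemergence plants measuring 2 to 18 cm, at one to four leaves. For the paddy assay, species had reached two leaves. Scoring took place 13–15 days later by eye, relative to untreated plants, using 0 for no effect up to 100 for full control.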

[14] = test system: ducksalad; assay: Test B flooded paddy test; type: in vivo, Heteranthera limosa; conditions: 1000 g ai/ha, scale 0 to 100 (0 no effect, 100 complete control)
How it was run: as §3

[15] = test system: small flower umbrella sedge; assay: Test B flooded paddy test; type: in vivo, Cyperus difformis; conditions: 1000 g ai/ha, scale 0 to 100 (0 no effect, 100 complete control)
How it was run: as §3

[16] = Postemergence, 125 g ai/ha, scale 0 (no effect) to 100 (complete control)
[17] = Postemergence, 500 g ai/ha, visual rating after 13 to 15 days, scale 0 (no effect) to 100 (complete control)
[18] = Preemergence, 500 g ai/ha, scale 0 to 100
[19] = preemergence, 125 g ai/ha, 0 to 100 scale, 0 is no effect, 100 is complete control
[20] = 125 g ai/ha, 0 = no effect, 100 = complete control, preemergence
[21] = 125 g ai/ha, visual rating, scale 0 (no effect) to 100 (complete control), postemergence
[22] = 500 g ai/ha, visual rating, 0 = no effect, 100 = complete control, preemergence
[23] = postemergence, 500 g ai/ha, scale 0 to 100, 0 is no effect, 100 is complete control

`CCn1nc(C(C)(C)C)cc1C(=O)Nc1cccc(C(=O)NCCF)c1` [Compound 45] was tested, and the “Foxtail, Giant plant response rating” value [1, 16] was 20, the “Plant response rating, Foxtail, Giant” value [1, 17] was 30 and the “Foxtail, Giant plant response rating” value [1, 18] was 100. For the same compound, the “Plant response rating, Foxtail, Giant” value [1, 19] was 10, the “Corn plant response rating” value [2, 16] was 20 and the “Plant response rating, Corn” value [2, 17] was 30. For the same compound, the “Corn plant response rating” value [2, 18] was 30, the “Crabgrass, Large plant response rating” value [3, 16] was 30 and the “Plant response rating, Crabgrass, Large” value [3, 17] was 30. The “Crabgrass, Large plant response rating” value [3, 18] was 90, the “Plant response rating, Surinam Grass” value [4, 17] was 30 and the “Surinam Grass plant response rating” value [4, 18] was 50. The “Plant response rating, Surinam Grass” value [4, 19] was 20, the “Cocklebur plant response rating” value [5, 16] was 20 and the “Plant response rating, Cocklebur” value [5, 17] was 80. For the same compound, the “Cocklebur plant response rating” value [5, 18] was 80, the “Blackgrass plant response rating” value [6, 16] was 10 and the “Plant response rating, Blackgrass” value [6, 17] was 20. The “Barnyardgrass plant response rating” value [7, 16] was 20, the “Plant response rating, Barnyardgrass” value [7, 17] was 30 and the “Barnyardgrass plant response rating” value [7, 18] was 100. The “Plant response rating, Pigweed” value [8, 17] was 100, the “Pigweed plant response rating” value [8, 18] was 100 and the “Plant response rating, Pigweed” value [8, 19] was 100. For the same compound, the “Plant response rating, Wheat” value [9, 17] was 30, the “Oat, Wild plant response rating” value [10, 16] was 0 and the “Plant response rating, Oat, Wild” value [10, 17] was 20. For the same compound, the “Morningglory plant response rating” value [11, 16] was 40, the “Plant response rating, Morningglory” value [11, 17] was 90 and the “Morningglory plant response rating” value [11, 18] was 30. For the same compound, the “Plant response rating, Morningglory” value [11, 19] was 10, the “Plant response rating, Velvetleaf” value [12, 17] was 70 and the “Velvetleaf plant response rating” value [12, 18] was 100. The “Plant response rating, Velvetleaf” value [12, 19] was 20, the “Rice plant response rating” value ([13]; visual rating, 13 to 15 days) was 70 and the “Ducksalad plant response rating” value ([14]; visual rating, 13 to 15 days) was 80. For the same compound, the “Sedge, Umbrella plant response rating” value ([15]; visual rating, 13 to 15 days) was 70.

For `CCn1nc(C(C)(C)C)cc1C(=O)Nc1cncc(C(=O)N2CC=CC2)n1` [Compound 290], the “Foxtail, Giant plant response rating (0 to 100 scale)” value [1, 20] was 10, the “Foxtail, Giant plant response rating” value [1, 21] was 20 and the “Plant response rating, Foxtail, Giant” value [1, 22] was 80. For the same compound, the “Foxtail, Giant plant response rating” value [1, 23] was 60, the “Corn plant response rating (0 to 100 scale)” value [2, 20] was 0 and the “Corn plant response rating” value [2, 21] was 0. The “Plant response rating, Corn” value [2, 22] was 0, the “Corn plant response rating” value [2, 23] was 10 and the “Crabgrass, Large plant response rating (0 to 100 scale)” value [3, 20] was 0. The “Crabgrass, Large plant response rating” value [3, 21] was 0, the “Plant response rating, Crabgrass, Large” value [3, 22] was 90 and the “Crabgrass, Large plant response rating” value [3, 23] was 0. The “Surinam Grass plant response rating (0 to 100 scale)” value [4, 20] was 0, the “Surinam Grass plant response rating” value [4, 21] was 0 and the “Plant response rating, Surinam Grass” value [4, 22] was 10. The “Surinam Grass plant response rating” value [4, 23] was 30, the “Cocklebur plant response rating (0 to 100 scale)” value [5, 20] was 0 and the “Cocklebur plant response rating” value [5, 21] was 0. The “Plant response rating, Cocklebur” value [5, 22] was 0, the “Cocklebur plant response rating” value [5, 23] was 10 and the “Blackgrass plant response rating” value [6, 21] was 20. The “Blackgrass plant response rating” value [6, 23] was 30, the “Barnyardgrass plant response rating (0 to 100 scale)” value [7, 20] was 0 and the “Barnyardgrass plant response rating” value [7, 21] was 0. For the same compound, the “Plant response rating, Barnyardgrass” value [7, 22] was 80, the “Barnyardgrass plant response rating” value [7, 23] was 0 and the “Pigweed plant response rating (0 to 100 scale)” value [8, 20] was 0. For the same compound, the “Pigweed plant response rating” value [8, 21] was 10, the “Plant response rating, Pigweed” value [8, 22] was 100 and the “Pigweed plant response rating” value [8, 23] was 10. The “Wheat plant response rating” value ([9]; 125 g ai/ha, visual rating, scale 0 (no effect) to 100 (complete control)) was 20, the “Wheat plant response rating” value ([9]; 500 g ai/ha, scale 0 to 100, 0 is no effect, 100 is complete control) was 30 and the “Oat, Wild plant response rating” value [10, 21] was 20. The “Oat, Wild plant response rating” value [10, 23] was 40, the “Morningglory plant response rating (0 to 100 scale)” value [11, 20] was 0 and the “Morningglory plant response rating” value [11, 21] was 0. For the same compound, the “Plant response rating, Morningglory” value [11, 22] was 0, the “Morningglory plant response rating” value [11, 23] was 0 and the “Velvetleaf plant response rating” value [12, 21] was 0. The “Plant response rating, Velvetleaf” value [12, 22] was 0, the “Velvetleaf plant response rating” value [12, 23] was 10 and the “Rice plant response rating” value [13] was 60. The “Ducksalad plant response rating” value [14] was 70 and the “Sedge, Umbrella plant response rating” value [15] was 70.
